# According to patent publication US20030045541A1, “GABA-Receptor modulators with NMDA-Antagonistic activity” (priority 2001, published 2003):
# Columns and labels:
# [1] = tested on: primary cell cultures of cortical neurons of rats; experiment: Oxygen and glucose deprivation (OGD) model, LDH level in the medium; type: cell-based; settings: for LDH level: OGD, after 24 hours, OGD control 25.1
# Method: The measurements were performed on primary cell cultures of cortical neurons of rats. After the cells were grown in culture, the following test was performed:
# Glucose and oxygen were simultaneously removed from the culture solution. This model is a definitely sturdy model, which simulates the conditions during a very serious and very extensive stroke. In the zero comparison, the culture solution was left unchanged (BSS=balanced salt solution). In the control, oxygen and glucose were removed (OGD=oxygen and glucose deprivation); in the test group, Abecarnil was added simultaneously to the oxygen and glucose removal.
# As damage parameters for the neurons, the LDH (lactate-dehydrogenase) level in the solution was measured by the cells. LDH is a definitely reliable stress parameter for the cells. The stronger the neuronal stress is or the more cells are already ruined, the more the LDH levels in the medium increase. From a pharmaceutical agent with a neuroprotective effect, it can be expected that it reduces the LDH level in the medium.
# In FIG. 1, the values of such a measurement were depicted. If the LDH levels were below OGD 25.1, they were 11.0 with 0.1 μm of Abecarnil; 6.2 with 1 μm of Abecarnil; 14.9 with 10 μm of Abecarnil, and 15 with 100 μm of Abecarnil (after 24 hours). In the case of an Abecarnil concentration of 1 μm, this corresponds to an LDH reduction of over 75%!
# [2] = tested on: GABAA-receptor-mediated IPSCs; experiment: Inhibitory post-synaptic flows (IPSCs), patch-clamp on cultivated neurons; type: cell-based, Wistar
# Method: (§1) The measurements were produced on cultivated neurons of Wistar embryos on the eighteenth day of gestation. After the preparation, the neurons were grown on small plates. To this end, small cover glasses for microscopic preparations with a diameter of 12 mm (assistant) were used. In each case four of the small cover glasses were transferred to a small plastic dish (Nuncion).
# As preparation media, the following solutions were used: GBSS (Grey's buffered salt solution, Sigma) supplemented with 10 mmol of HEPES (N-2-hydroxyethyl-piperazine-N-2-ethanesulfonic acid, Sigma), adjusted to pH 7.3 with NaOH (Sigma). As culture media, the following were used: DMEM (Sigma), glucose-containing, equine serum 10% (Sigma) and glutamine. The cells were generally divided so that at the beginning of the culture, 50,000 cells per small plate were present. The medium was changed according to the preparation after 24 hours and then changed after three days in each case. Synaptic spontaneous activity developed generally starting from the tenth day in vitro.
# The extracellular measuring solution had the following composition (in mmol): NaCl 140; KCl 5.4; CaCl2 2; HEPES 10; MgCl 1; glucose 25. The pH was set at 7.4 with NaOH. IPSCs were isolated by adding 1,2,3,4,-tetrahydro-6-nitro-2,3-di-oxo-benzo-quinoxaline-7-sulfonamide (NBQX 10 μm) and DL-2-amino-5-phosphonovaleric acid (±-APV 30 μm). EPSCs were isolated by adding bicuculline (10 μm) and picrotoxin (20 μm). In the examination of the EPSCs, a ringer solution without MgCl2 was used. The pipette solution had the following composition (in mmol): KCl 120; MgCl2 2; CaCl2 1; HEPES 10; EGTA 11; glucose 20; the pH was 7.2.
# (§2) The measurements were carried out at room temperature. […] The thus modulated signals were visualized by means of a storage oscilloscope and recorded with a thermal plotter. At the same time, the signals were detected via a […] and recorded on a videotape. The stored data were later played back, digitalized again and then evaluated “offline” with a PC. […]
# [3] = tested on: glutamatergic EPSCs; experiment: Excitatory post-synaptic flows (EPSCs), patch-clamp on cultivated neurons; type: cell-based, Wistar; settings: P<0.05
# Method: as §1
# (§3) As preparation media, the following solutions were used: GBSS (Grey's buffered salt solution, Sigma) supplemented with 10 mmol of HEPES (N-2-hydroxyethyl-piperazine-N-2-ethanesulfonic acid, Sigma), adjusted to pH 7.3 with NaOH (Sigma). […]
# as §2
# Excitatory post-synaptic flows (EPSCs) were isolated by adding the GABAA-receptor antagonists bicuculline (20 μm) and the GABAA-receptor antagonist picrotoxin (10 μm) that has an allosteric effect. […] The pure EPSCs that can now be detected could be blocked completely by adding 10 μm of NBQX and 30 μm of APV and thus are purely glutamatergic.
# [4] = tested on: AMPA-ergic activity; experiment: Isolated AMPA-ergic activity of EPSCs (30 μm APV applied); type: cell-based, Wistar; settings: 30 μm of APV on isolated EPSCs; n=3
# Method: as §1, §3, §2
# (§4) Excitatory post-synaptic flows (EPSCs) were isolated by adding the GABAA-receptor antagonists bicuculline (20 μm) and the GABAA-receptor antagonist picrotoxin (10 μm) that has an allosteric effect. […] The pure EPSCs that can now be detected could be blocked completely by adding 10 μm of NBQX and 30 μm of APV and thus are purely glutamatergic. […]
# [5] = tested on: NMDA receptor; experiment: Isolated NMDA portion of EPSCs (10 μm NBQX applied); type: cell-based, Wistar; settings: 10 μm of NBQX on isolated EPSCs, 1 μm of compound; n=7
# Method: as §1, §3, §2, §4
compound,measurement,setting,value
"COCc1c(C(=O)OC(C)C)ncc2[nH]c3ccc(OCc4ccccc4)cc3c12 [Abecarnil, 6-benzyloxy-4-methoxymethyl-β-carboline-3-carboxylic acid isopropyl ester]",LDH level,[1]; 0.1 μm of Abecarnil,11.0
same,LDH level,[1]; 1 μm of Abecarnil,6.2
same,LDH reduction,"[1]; 1 μm of Abecarnil, versus OGD",over 75%
same,LDH level,[1]; 10 μm of Abecarnil,14.9
same,LDH level,[1]; 100 μm of Abecarnil,15
same,"slow time constant of the averaged IPSCs (τslow), % of the starting value",[2]; P<0.05,289.7±180.9%
same,"IPSC frequency, % of the starting value","[2]; n=10, P<0.05",33.8±24.7%
same,"quick time constant of the averaged IPSCs (τfast), % of the starting value",[2]; no statistical significance,143.9±51.0%
same,"EPSC amplitude, % of the starting value",[3],81.2±17.8%
same,"EPSC frequency, % of the starting value",[3],32.6±19.8%
same,effect on isolated AMPA-ergic activity,[4],no effect
same,effect on isolated NMDA portion of EPSC activity,[5],completely blocked
